Reference: BindingDB's records for PubMed 1347569 (Stanford University, 1992)
Where a name gives a salt, the structure may show the parent alone.

What was measured:
[1] = molecular target: T1, 5-hydroxytryptamine receptor 2C (Rattus norvegicus, UniProt P08909)
T1 sequence (P08909 whole entry): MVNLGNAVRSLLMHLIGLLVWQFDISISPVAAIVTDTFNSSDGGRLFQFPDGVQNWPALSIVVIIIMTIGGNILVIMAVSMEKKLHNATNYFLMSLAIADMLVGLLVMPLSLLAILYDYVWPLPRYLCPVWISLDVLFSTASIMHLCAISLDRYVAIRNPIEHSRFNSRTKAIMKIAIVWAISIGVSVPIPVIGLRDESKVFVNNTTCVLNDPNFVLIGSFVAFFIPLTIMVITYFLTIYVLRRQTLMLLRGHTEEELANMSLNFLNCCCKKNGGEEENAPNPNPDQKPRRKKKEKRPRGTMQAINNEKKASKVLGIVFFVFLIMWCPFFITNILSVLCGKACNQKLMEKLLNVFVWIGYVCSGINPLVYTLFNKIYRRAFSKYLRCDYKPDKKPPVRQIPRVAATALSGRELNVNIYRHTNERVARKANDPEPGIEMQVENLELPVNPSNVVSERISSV

[2] = molecular target: 5-hydroxytryptamine receptor 2A (Rattus norvegicus, UniProt P14842)
Sequence of 5-hydroxytryptamine receptor 2A (P14842 whole entry): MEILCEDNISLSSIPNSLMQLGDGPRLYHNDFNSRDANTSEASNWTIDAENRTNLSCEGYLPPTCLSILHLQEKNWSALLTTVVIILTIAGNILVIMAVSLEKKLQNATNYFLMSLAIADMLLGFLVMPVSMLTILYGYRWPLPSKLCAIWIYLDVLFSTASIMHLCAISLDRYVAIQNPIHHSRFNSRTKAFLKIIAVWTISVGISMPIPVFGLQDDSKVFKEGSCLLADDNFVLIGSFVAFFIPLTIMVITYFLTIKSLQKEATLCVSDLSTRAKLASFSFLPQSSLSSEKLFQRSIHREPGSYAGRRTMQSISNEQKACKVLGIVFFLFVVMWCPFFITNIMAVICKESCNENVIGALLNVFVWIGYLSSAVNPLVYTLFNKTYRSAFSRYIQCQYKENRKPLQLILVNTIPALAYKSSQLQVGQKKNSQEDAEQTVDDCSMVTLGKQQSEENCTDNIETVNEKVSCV

| SMILES | Ki [1] [nM] | Ki [2] [nM] |
| --- | --- | --- |
| CCN(CC)CCNC(=O)c1cc(Cl)c(N)cc1OC [4-amino-5-chloro-N-[2-(diethylamino)ethyl]-2-methoxy-benzamide;hydrochloride] | > 10000 | – |
| O=c1[nH]c2ccccc2n1CCCN1CCC(n2c(=O)[nH]c3cc(Cl)ccc32)CC1 | > 10000 | 294 |
| CN1CCCCC1CCN1c2ccccc2Sc2ccc([S+](C)[O-])cc21 (stereo unspecified) | 79 | 6.3 |
| CN1CCN(CC/C=C2/c3ccccc3Sc3ccc(S(=O)(=O)N(C)C)cc32)CC1 [MLS000028463] | 1550 | – |
| OCCN1CCN(CC/C=C2/c3ccccc3Sc3ccc(C(F)(F)F)cc32)CC1 [(cis) 2-{4-[3-(2-Trifluoromethyl-thioxanthen-9-ylidene)-propyl]-piperazin-1-yl}-ethanol(Flupentixol)] | 102 | 2 |
| CN1CCc2cc(Cl)c(O)cc2[C@@H](c2ccccc2)C1 [SCH 23390,R(+)] | 13.4 | 19.9 |
| Clc1cncc(N2CCNCC2)n1 [L-630,571] | 255 | > 10000 |
| CC1CCN(CCCC(=O)c2ccc(F)cc2)CC1 [CAS_3575-80-2] | 1340 | – |
| CN1CCN(C2=Nc3cc(F)ccc3Cc3ccccc32)CC1 | 18.2 | 7.9 |
| O=C(c1ccc(F)cc1)C1CCN(CCn2c(=O)[nH]c3ccccc3c2=O)CC1 [3-(2-{4-[(4-fluorophenyl)carbonyl]piperidin-1-yl}ethyl)-1,2,3,4-tetrahydroquinazoline-2,4-dione] | 28.5 | – |
| CN1CCN(C2=Cc3cc(Cl)ccc3C(=CC#N)c3ccccc32)CC1 [CAS_79781-95-6] | 23 | 0.79 |
| CN1CCN(C2=Nc3cscc3C(=CC#N)c3cscc32)CC1 [NSC_3086153] | 62 | 39.8 |
| c1ccc2nc(N3CCNCC3)ccc2c1 [2-Piperazin-1-yl-quinoline (Quipazine)] | 336 | 613 |
| CCNC(=O)N1CCN(CCCC(c2ccc(F)cc2)c2ccc(F)cc2)CC1 | 1150 | – |
| O=C1CC2(CCCC2)CC(=O)N1CCCCN1CCN(c2nsc3ccccc23)CC1 [TIOSPERONE] | 9.7 | – |
| O=c1[nH]c2ccccc2n1C1CCN(CCCC(c2ccc(F)cc2)c2ccc(F)cc2)CC1 [1-(1-(4,4-bis(4-fluorophenyl)butyl)piperidin-4-yl)-1H-benzo[d]imidazol-2(3H)-one] | > 10000 | 7.9 |
